Earlier results as cited in patent US20240158750A1, “STROMA-FREE NK CELL DIFFERENTIATION FROM HUMAN PLURIPOTENT STEM CELLS” (The Children's Medical Center Corporation, priority 2021, published 2024).

How the values were obtained:
G9a/GLP = target: T1, G9a/GLP (Homo sapiens, UniProt Q96KQ7); conditions: SAM-competitive; cited from earlier work
T1 sequence (Q96KQ7 1-1210): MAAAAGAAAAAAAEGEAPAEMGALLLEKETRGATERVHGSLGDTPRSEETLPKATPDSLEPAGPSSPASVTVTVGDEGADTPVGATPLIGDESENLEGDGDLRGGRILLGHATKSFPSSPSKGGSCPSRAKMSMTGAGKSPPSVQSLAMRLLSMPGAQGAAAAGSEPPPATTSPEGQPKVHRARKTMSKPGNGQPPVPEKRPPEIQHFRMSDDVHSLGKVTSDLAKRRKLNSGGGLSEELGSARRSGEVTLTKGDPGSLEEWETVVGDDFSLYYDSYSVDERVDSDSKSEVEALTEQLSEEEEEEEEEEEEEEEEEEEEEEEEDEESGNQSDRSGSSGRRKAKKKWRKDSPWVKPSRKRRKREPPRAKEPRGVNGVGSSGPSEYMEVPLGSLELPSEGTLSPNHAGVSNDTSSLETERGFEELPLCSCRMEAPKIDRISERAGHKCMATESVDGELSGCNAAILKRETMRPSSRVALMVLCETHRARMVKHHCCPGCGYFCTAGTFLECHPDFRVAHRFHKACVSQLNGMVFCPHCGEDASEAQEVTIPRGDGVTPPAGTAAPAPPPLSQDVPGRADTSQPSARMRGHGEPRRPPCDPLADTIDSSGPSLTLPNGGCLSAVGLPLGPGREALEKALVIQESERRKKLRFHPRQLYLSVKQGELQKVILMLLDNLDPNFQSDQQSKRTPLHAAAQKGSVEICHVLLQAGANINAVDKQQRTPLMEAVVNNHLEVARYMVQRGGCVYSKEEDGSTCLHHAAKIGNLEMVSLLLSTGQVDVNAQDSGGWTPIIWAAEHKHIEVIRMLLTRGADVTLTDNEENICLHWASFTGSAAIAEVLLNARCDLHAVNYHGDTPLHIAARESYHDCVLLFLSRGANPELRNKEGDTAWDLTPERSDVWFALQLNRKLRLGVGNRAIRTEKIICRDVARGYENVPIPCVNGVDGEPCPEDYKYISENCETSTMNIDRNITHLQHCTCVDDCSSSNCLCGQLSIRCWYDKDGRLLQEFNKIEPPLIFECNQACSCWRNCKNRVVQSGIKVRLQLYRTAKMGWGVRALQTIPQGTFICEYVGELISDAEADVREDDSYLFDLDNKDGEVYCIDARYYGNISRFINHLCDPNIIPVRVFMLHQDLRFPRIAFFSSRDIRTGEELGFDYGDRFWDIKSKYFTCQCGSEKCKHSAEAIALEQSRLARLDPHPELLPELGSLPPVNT

Lys27-specific EZH2 = conditions: cited from earlier work
Lys4-specific SET7/9 = target: T2, Lys4-specific SET7/9 (Homo sapiens, UniProt Q8WTS6); conditions: cited from earlier work
T2 sequence (Q8WTS6 1-366): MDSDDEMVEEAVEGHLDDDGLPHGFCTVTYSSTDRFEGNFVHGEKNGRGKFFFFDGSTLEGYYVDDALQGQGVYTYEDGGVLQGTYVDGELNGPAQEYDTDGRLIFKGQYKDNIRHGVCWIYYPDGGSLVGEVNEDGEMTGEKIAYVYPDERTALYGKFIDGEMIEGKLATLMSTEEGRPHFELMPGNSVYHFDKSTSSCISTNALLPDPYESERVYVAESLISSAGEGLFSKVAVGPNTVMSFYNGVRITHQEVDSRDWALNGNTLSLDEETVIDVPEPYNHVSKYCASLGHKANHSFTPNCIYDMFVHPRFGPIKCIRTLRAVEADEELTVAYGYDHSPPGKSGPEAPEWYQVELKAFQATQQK

Lys20-specific PRSET7 = target: T3, Lys20-specific PRSET7 (Homo sapiens, UniProt Q9NQR1); conditions: cited from earlier work
T3 sequence (Q9NQR1 1-393): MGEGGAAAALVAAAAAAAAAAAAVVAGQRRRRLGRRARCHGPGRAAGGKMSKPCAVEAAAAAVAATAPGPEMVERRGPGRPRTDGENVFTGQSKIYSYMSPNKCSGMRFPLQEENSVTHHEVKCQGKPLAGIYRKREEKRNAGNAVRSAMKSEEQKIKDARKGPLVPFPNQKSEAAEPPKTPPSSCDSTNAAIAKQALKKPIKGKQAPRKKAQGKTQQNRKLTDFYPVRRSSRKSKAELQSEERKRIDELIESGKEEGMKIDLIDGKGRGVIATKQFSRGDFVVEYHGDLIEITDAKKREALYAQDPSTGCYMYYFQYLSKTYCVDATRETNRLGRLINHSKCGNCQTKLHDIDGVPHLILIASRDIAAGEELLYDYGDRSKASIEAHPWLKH

G9a = conditions: cited from earlier work
DIM5 = target: T4, DIM5 (Neurospora crassa, UniProt Q8X225); conditions: cited from earlier work
T4 sequence (Q8X225 1-331): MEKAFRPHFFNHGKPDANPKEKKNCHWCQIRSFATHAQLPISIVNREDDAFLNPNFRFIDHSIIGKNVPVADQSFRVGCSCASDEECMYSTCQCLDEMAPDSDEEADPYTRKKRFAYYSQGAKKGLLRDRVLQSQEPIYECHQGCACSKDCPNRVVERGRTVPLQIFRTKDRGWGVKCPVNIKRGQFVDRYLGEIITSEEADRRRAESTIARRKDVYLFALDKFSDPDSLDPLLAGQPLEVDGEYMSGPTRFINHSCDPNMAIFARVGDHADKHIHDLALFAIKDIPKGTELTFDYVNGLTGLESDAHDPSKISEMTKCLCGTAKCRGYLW

[1] = target: T5, class III isoenzyme SIRT1 (Homo sapiens, UniProt Q96EB6); conditions: cited from earlier work
T5 sequence (Q96EB6 1-747): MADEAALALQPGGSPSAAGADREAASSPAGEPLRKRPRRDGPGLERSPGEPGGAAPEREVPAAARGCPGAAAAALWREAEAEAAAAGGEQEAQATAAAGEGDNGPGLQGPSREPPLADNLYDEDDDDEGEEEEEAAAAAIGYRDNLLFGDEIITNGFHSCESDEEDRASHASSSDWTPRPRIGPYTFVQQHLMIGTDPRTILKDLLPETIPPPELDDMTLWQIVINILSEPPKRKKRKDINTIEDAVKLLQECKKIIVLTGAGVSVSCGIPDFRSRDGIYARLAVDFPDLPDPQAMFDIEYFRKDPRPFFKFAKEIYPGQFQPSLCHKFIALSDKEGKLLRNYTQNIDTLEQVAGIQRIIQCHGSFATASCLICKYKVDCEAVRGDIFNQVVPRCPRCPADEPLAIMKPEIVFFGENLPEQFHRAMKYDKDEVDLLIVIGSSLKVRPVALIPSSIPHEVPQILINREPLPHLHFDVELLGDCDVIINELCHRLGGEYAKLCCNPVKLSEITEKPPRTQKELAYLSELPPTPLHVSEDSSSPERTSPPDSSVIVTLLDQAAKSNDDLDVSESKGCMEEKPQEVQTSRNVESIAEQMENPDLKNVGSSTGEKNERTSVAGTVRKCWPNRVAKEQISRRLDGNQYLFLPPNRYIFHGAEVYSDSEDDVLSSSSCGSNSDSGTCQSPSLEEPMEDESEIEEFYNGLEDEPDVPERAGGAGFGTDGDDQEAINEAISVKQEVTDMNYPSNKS

PKMT G9a = target: T6, PKMT G9a (Homo sapiens, UniProt Q96KQ7); conditions: based on Morrison Ki; cited from earlier work
T6 sequence (Q96KQ7 1-1210): T1 sequence (Q96KQ7 1-1210)

SET8/PreSET7 = SET8/PreSET7 (Homo sapiens, UniProt Q9NQR1); conditions: SET8/PreSET7, inactive, ECSD enzymatic assay; cited from earlier work
SET7/9 = target: T7, SET7/9 (Homo sapiens, UniProt Q8WTS6); conditions: SET7/9, inactive, ECSD enzymatic assay; cited from earlier work
T7 sequence (Q8WTS6 1-366): T2 sequence (Q8WTS6 1-366)

JMJD2E = target: T8, JMJD2E (Homo sapiens, UniProt B2RXH2); conditions: ECSD enzymatic assay, cited from earlier work
T8 sequence (B2RXH2 1-506): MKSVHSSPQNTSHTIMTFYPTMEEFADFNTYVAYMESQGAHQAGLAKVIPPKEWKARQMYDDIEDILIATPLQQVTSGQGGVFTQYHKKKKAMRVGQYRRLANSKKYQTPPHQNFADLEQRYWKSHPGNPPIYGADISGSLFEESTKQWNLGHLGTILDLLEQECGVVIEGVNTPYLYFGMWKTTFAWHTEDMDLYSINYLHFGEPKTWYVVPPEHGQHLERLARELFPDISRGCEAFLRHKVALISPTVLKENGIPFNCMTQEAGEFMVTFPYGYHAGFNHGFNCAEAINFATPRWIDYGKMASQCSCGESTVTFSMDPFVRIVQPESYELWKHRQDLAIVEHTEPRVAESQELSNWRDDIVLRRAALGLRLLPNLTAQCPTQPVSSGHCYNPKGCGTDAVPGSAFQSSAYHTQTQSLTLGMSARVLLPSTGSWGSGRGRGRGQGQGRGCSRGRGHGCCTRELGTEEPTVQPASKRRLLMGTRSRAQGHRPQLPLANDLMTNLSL

PRMT3 = PRMT3 (Homo sapiens, UniProt O60678); conditions: PRMT3, inactive, ECSD enzymatic assay; cited from earlier work
Sequence of PRMT3 (O60678 whole entry, species assumed): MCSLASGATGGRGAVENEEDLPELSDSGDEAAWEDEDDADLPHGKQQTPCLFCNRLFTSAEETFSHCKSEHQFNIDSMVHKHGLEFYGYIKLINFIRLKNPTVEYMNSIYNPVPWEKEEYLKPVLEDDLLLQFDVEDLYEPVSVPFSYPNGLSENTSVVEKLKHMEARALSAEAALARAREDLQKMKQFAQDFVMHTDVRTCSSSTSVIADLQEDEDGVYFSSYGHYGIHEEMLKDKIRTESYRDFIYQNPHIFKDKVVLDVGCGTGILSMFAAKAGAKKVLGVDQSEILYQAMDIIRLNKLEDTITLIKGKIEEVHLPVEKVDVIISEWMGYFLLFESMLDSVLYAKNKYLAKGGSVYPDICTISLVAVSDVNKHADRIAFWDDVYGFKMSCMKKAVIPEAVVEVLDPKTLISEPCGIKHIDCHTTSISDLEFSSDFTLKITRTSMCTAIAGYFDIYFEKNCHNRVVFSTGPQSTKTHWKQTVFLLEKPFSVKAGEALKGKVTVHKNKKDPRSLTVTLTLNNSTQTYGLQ

COc1ccc(C(=O)Oc2ccc(CCn3c(NC(=O)c4ccc(C(F)(F)F)cc4)nc4cc(C(=O)O)ccc43)cc2)cc1 [BIX-01338]
effective conc. (G9a/GLP): G9a/GLP effective conc. = 15 μM

Chaetocin
IC50 (Lys27-specific EZH2): > 90 µM | IC50 (Lys4-specific SET7/9): > 90 µM | IC50 (Lys20-specific PRSET7): > 90 µM | IC50 (G9a): 2.5 µM | IC50 (DIM5): 3 µM

CCCCc1nc2cc(/C=C/C(=O)NO)ccc2n1CCN(CC)CC [SB939 (Pracinostat)]
activity against the class III isoenzyme SIRT1 [1]: no activity

COc1cc2c(NC3CCN(C)CC3)nc(N3CCCN(C)CC3)nc2cc1OCCOCCN(C)C [UNC0321]
fold more potent than BIX01294 (PKMT G9a): ~250 fold | IC50 (SET8/PreSET7): > 40 µM | IC50 (SET7/9): > 40 µM | selectivity (JMJD2E; G9a over JMJD2E): well as JMJD2E (>1000-fold | IC50 (JMJD2E; JMJD2E, inactive): > 40 µM | IC50 (PRMT3): > 40 µM
